Results published in BindingDB's records for doi:10.1021/jm201510p (Abo Akademi University, 2012).

Molecular target: T1, Poly [ADP-ribose] polymerase tankyrase-2 (Homo sapiens, UniProt Q9H2K2)
T1 sequence (Q9H2K2 whole entry): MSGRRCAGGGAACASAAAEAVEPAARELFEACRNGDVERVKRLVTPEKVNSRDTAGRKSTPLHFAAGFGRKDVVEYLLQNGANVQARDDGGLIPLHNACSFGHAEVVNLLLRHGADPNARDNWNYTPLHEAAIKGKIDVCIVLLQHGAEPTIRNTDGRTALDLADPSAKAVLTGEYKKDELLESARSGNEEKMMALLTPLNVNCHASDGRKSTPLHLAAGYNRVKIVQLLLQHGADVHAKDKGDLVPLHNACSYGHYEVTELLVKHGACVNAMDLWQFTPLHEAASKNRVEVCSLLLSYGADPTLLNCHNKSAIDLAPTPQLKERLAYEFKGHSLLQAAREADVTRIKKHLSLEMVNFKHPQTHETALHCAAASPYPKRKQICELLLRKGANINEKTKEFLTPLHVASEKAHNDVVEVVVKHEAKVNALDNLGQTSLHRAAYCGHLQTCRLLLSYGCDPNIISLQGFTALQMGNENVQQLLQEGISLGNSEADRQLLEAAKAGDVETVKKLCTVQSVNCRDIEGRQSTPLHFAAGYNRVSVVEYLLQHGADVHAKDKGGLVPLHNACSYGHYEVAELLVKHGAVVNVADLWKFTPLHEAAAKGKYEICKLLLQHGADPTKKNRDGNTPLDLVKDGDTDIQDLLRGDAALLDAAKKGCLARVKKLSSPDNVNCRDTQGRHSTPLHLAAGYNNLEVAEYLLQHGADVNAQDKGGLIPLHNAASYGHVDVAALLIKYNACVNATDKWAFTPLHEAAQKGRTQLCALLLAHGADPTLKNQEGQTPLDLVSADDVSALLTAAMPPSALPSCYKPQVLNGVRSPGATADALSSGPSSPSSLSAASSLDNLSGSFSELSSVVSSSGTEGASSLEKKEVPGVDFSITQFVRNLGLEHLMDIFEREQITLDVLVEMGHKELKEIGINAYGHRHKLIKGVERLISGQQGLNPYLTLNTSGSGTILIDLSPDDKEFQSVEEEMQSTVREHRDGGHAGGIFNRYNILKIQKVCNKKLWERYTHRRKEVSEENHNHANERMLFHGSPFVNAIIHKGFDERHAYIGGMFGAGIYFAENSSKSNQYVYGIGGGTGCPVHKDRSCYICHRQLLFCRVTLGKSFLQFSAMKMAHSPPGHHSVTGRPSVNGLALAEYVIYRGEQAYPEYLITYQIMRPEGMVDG
Test: Activity of N-terminus hexaHis-tagged human TNSK2 expressed in Escherichia coli BL21 (DE3) cells using biotinylated NAD+ as substrate after 90 mins by Western blot analysis

Row | EC50 | Compound
1 | > 25 µM | O=C(Nc1ccccc1)c1ccc(-n2c(O)c3c(c2O)[C@H]2C=C[C@@H]3C2)cc1
2 | > 25 µM | O=C(NC1CCCCC1)c1ccc(-n2c(O)c3c(c2O)[C@H]2C=C[C@@H]3C2)cc1 [N-Cyclohexyl-4-((1R,2S,6R,7S)-3,5-dioxo-4-aza-tricyclo[5.2.1.0*2,6*]dec-8-en-4-yl)-benzamide]
